# Measurements as given in paper PMC3108859 (Toxicology and applied pharmacology, 2009).
# Entries after “also recorded” stand apart in the source; their conditions may differ.
# Key:
# [1] = test system: rat hepatocyte-Kupffer cell co-culture; settings: ref Tukov et al., 2006; cited from earlier work
# [2] = test system: primary human hepatocytes; test: Quantitative sub-lethal hepatotoxicity imaging assays; type: cell-based; settings: absence of cytokines, 24 or 48 hours
# [3] = test system: primary human hepatocytes; type: cell-based; settings: no cytokines, 24 hr, doses less than each drug's own 100*Cmax
# [4] = test system: primary human hepatocytes; type: cell-based; settings: 24 hours post-treatment
Structure (SMILES),"drug-induced sub-lethal hepatocyte injuries (lipid content, ROS, MtMP, GSH depletion) [2]",cytokine synergy effects by factorial analysis of caspase 3/7 activity [4],also measured
CN(C)CCCN1c2ccccc2Sc2ccc(Cl)cc21 [chlorpromazine],,,synergistic induction of hepatocellular death following LPS treatment [1]: synergistic induction of hepatocellular death following LPS treatment
CC[C@H]1OC(=O)[C@H](C)[C@@H](O[C@H]2C[C@@](C)(OC)[C@@H](O)[C@H](C)O2)[C@H](C)[C@@H](O[C@@H]2O[C@H](C)C[C@H](N(C)C)[C@H]2O)[C@](C)(OC)C[C@@H](C)C(=O)[C@H](C)[C@@H](O)[C@]1(C)O [clarithromycin],numerous sub-lethal hepatotoxicities,,
CCc1nn(CCCN2CCN(c3cccc(Cl)c3)CC2)c(=O)n1CCOc1ccccc1 [nefazodone],numerous sub-lethal hepatotoxicities,,
C=C[C@H]1C[N@@]2CC[C@H]1C[C@H]2[C@H](O)c1ccnc2ccc(OC)cc12 [quinine],,,drug-only hepatotoxicity (greater than two-fold increase in LDH release) [3]: induced significant drug-only hepatotoxicity
CC[C@H]1OC(=O)[C@H](C)C(=O)[C@H](C)[C@@H](O[C@@H]2O[C@H](C)C[C@H](N(C)C)[C@H]2O)[C@](C)(OC)C[C@@H](C)C(=O)[C@H](C)[C@H]2N(CCCCn3cnc(-c4cccnc4)c3)C(=O)O[C@]12C [telithromycin],"only sub-lethal injury induced by both telithromycin and trovafloxacin that was statistically significant was MtMP depletion; also recorded: induced only one type of sub-lethal injury, mitochondrial membrane potential depletion","evident, in decreasing magnitude, for LPS and IL-1α but not other treatment variables",
N[C@@H]1[C@H]2CN(c3nc4c(cc3F)c(=O)c(C(=O)O)cn4-c3ccc(F)cc3F)C[C@@H]12 [trovafloxacin],"only sub-lethal injury induced by both telithromycin and trovafloxacin that was statistically significant was MtMP depletion; also recorded: induced only one type of sub-lethal injury, mitochondrial membrane potential depletion","evident, in decreasing magnitude, for LPS and IL-1α but not other treatment variables",
